Source: patent US20260274828A1, “BROAD SPECTRUM ANTIFUNGAL KETO-ALKYL-PYRIDINIUM COMPOUNDS” (priority 2023, published 2026)
Where two headings read alike, the source gives them in different places.

Key:
red blood cells = experiment: Red blood cell lysis assay; type: cell-based, sheep; details: 2 h, normalized to max lysis by triton-x
Procedure: Hemolysis assays were performed with defibrinated sheep's blood (Lampire, Cat #7239001). Blood was washed three times with PBS then resuspended to about 50% hematocrit in PBS. A two-fold dilution series of the compounds in 200 μL PBS with equal DMSO concentration across the series, then red blood cells were added with a final concentration of 2% hematocrit. Cells were incubated at RT for 2 hours in a v-bottom microtiter plate, then plates were spun down and supernatant was transferred to a flat bottom microtiter plate for absorbance measurement at 570 nm. Compounds were tested in technical triplicate in at least two independent assays performed on different days.

[1] = test system: C. albicans SC5314 biofilms; experiment: Biofilm phase antifungal activity assay (XTT reduction); type: cell-based, Candida albicans
Procedure: (§1) These assays were performed as previously described (Mao et al., 2020; Ramage et al., 2001). C. albicans and C. auris, overnight cultures were washed in sterile PBS and adjusted to 1×10^6 CFU/mL in RPMI+MOPS pH 7. 100 μL cells were added to each well and incubated at 37° C. for 24 hours. A two-fold dilution series of the compounds was prepared in RPMI+MOPS with equal vehicle concentrations. Media was removed and biofilms were gently washed with PBS, then 200 μL of each drug dilution was added to wells and plates were incubated at 37° C. for an additional 24 hours. Media was removed and biofilms were gently washed with PBS, then 100 μL of XTT solution (0.83 mg/mL XTT sodium salt [Sigma, Cat #X4626]+32 μg/mL PMS [Sigma, Cat #P9625] in PBS) was added to each well. Plates were incubated at 37° C. for 30 minutes, then the absorbance was measured at 490 nm.
(§2) The metabolic activity of the biofilms was then assayed using the standard XXT reduction assay (Ramage et al., 2001). […] The biofilm activity of compound A was reduced by 4-fold relative to planktonic growth (MIC 4 μg/mL, Table 2).

C. albicans [2] = experiment: Planktonic MIC, CLSI guidelines; type: cell-based, Candida albicans; details: data not shown
S. aureus = experiment: Antibacterial MIC; type: cell-based; details: Staphylococcus aureus; strain Newman
C. albicans [3] = experiment: Checkerboard assay with clinical antifungals (FICI); type: cell-based, Candida albicans; details: with fluconazole
Procedure: To determine if compounds interacted with clinically used antifungal drugs, checkerboard assays were performed and fractional inhibitory concentration indices were determined. […] The FICI for compound B and fluconazole is 8.25 due to the 8-fold increase in fluconazole concentration in the combination; however, the concentration of compound B at FIC is reduced by 4-fold relative to compound B as a single agent (Table 3).

C. albicans [4] = experiment: Planktonic MIC, CLSI guidelines; type: cell-based, Candida albicans
Procedure: (§3) Minimum inhibitory concentrations were determined using CLSI guidelines (Beattie & Krysan, 2021; Wiederhold, 2021). All yeasts were cultured overnight in 3 mL YPD at 30° C., then washed twice in sterile PBS. Two-fold serial dilutions of each compound were prepared in RMPI+MOPS pH 7 (Gibco RPMI 1640 with L-glutamine [11875-093] and 0.165M 352 MOPS), then 1×10^3 cells were added per well. Plates were incubated at 37° C. for 24 hours (C. albicans and S. cerevisiae) or 72 hours (C. neoformans). For A. fumigatus and F. oxysporum wells were inoculated with 1.25×10^4 conidia. Plates were incubated at 37° C. for 48 hours for A. fumigatus and 72 hours for F. oxysporum. All MICs are defined as the well with complete growth inhibition as determined by visual inspection with the exception of MICs of fluconazole against C. albicans where the MIC is defined as at least 50% reduction in growth compared to the control.

C. auris = experiment: Planktonic MIC, CLSI guidelines; type: cell-based, Candida auris; details: Candidozyma auris
Procedure: as §3

C. auris 0381 biofilms = experiment: Biofilm phase antifungal activity assay (XTT reduction); type: cell-based, Candida auris
Procedure: as §1, §2

P. aeruginosa = experiment: Antibacterial MIC; type: cell-based, Pseudomonas aeruginosa
A. terreus = experiment: Planktonic MIC, CLSI guidelines; type: cell-based; details: Aspergillus terreus; strain CFF S023
C. albicans SC5314 = experiment: Rat model of Candida albicans vascular catheter infection; type: in vivo
Procedure: C. albicans biofilm growth during infection of implanted medical devices was measured using an external jugular-vein, rat-catheter infection model (Nett et al., 2012). Briefly, a 1×10^6 cells/ml inoculum for each strain or strain combination was allowed to grow on an internal jugular catheter placed in a pathogen-free female rat (16-week old, 400 g) for 24 hours. After this period, the catheter volumes were removed and the catheters were flushed with 0.9% NaCl. The biofilms were dislodged by sonication and vortexing. Viable cell counts were determined by dilution plating. Three replicates were performed for each strain.
After a 24 hours biofilm formation phase, the devices were removed, sectioned to expose the intraluminal surface, and processed for SEM imaging. Briefly, one milliliter fixative (4% formaldehyde and 1% glutaraldehyde in PBS) was added to each catheter tube and tubes were fixed at 4° C. overnight. Catheters were then washed with PBS prior to incubation in 1% OsO4 for 30 minutes. Samples were then serially dehydrated in ethanol (30-100%). Critical point drying was used to completely dehydrate the samples prior to palladium-gold coating. Samples were imaged on a SEM LEO 1530, with Adobe Photoshop 2022 (v. 23.2.2) used for image compilation.
One potential approach to managing central venous catheter infections is to treat the lumen of the catheter with an anti-infective solution that is locked within the catheter and not introduced into the patient (Chandra et al., 2018). This strategy is most often applied to catheters infected with bacteria but has been proposed for fungal infections as well (Pappas et al., 2016; Mermel et al., 2009). To test the efficacy of KAPs in this setting, a rat model of C. albicans venous catheter infection was employed (Nett et al., 2023). The catheter was infected with C. albicans SC5314 and, on post-infection day 1, treated with A (8 μg/mL solution within catheter) or vehicle. After 24 hours, the catheter was removed and processed for fungal burden and scanning electron microscopy. […]

[5] = 8 μg/mL solution within catheter, 24 hours

Nc1cc[n+](CC(=O)c2ccc3c(c2)OC(c2ccccc2)(c2ccccc2)O3)cc1.[Cl-] [Compound A] was tested, and the “red blood cell lysis LD50” value (red blood cells) was 26.9 µg/mL, the IC50 ([1]; Candida albicans, SC5314, established 24 h biofilm, treated 24 h, XTT, read-out: biofilm metabolic activity IC50) was 18.4 µg/mL and the “reduction of biofilm activity relative to planktonic growth” value ([1]; IC50 versus planktonic MIC) was 4 fold. The “change in MIC with glycerol instead of glucose as carbon source” value (C. albicans [2]) was “not observed”, the MIC (S. aureus) was 32 µg/mL and the “interaction with clinical antifungal” value (C. albicans [3]) was “antagonistic”. For the same molecule, the MIC (C. albicans [4]; Candida albicans, strain SC5314, read-out: MIC) was 4 µg/mL, the MIC (C. albicans [4]; Candida albicans, strain TWO #15, fluconazole-resistant, read-out: MIC) was 4 µg/mL and the MIC (C. albicans [4]; strain TWO #17, fluconazole-resistant) was 4 µg/mL. For the same molecule, the MIC (C. auris; strain 0381, drug susceptible) was 8 µg/mL, the MIC (C. auris; strain 0390, multi-drug resistant) was 2 µg/mL and the “activity during planktonic and inanimate-substrate biofilm growth” value (C. auris 0381 biofilms) was “comparable activity”. The “activity compared to cetylpyridinium chloride” value (P. aeruginosa; P. aeruginosa) was “more active”, the MIC (P. aeruginosa; Pseudomonas aeruginosa, strain PAO1) was 64 µg/mL and the MIC (A. terreus) was 2 to 4 µg/mL. For the same molecule, the “extent of remaining biofilm (scanning electron microscopy)” value (C. albicans SC5314; [5]) was “dramatic reduction”, the “reduction in fungal burden relative to vehicle-treated catheters” value (C. albicans SC5314; [5]) was greater than 1 log10 and the “fungal burden of the catheter” value (C. albicans SC5314; 8 μg/mL, 24 hr) was “significantly reduced”.
